Assay results from US9474736B2, “Composition and method for treating dry eye syndrome” (RAMSCOR, INC., priority 2008, dated 2016).
“Also recorded” adds a separate entry of the source.

Experiments:
CDE symptoms = experiment: Alleviation of CDE symptoms in contact lens-wearing individual, subjective comfort; format: in vivo, human
From the text: FIG. 1 is a bar graph depicting the subjective comfort of an individual applying a drop of α-tocopheryl acetate into the eye(s) before bedtime preceding the days indicated. Subjective comfort is depicted on a scale of 1 to 10; with 1 being very irritated, and right eye feeling swollen; and 10 being very comfortable and tolerable compared to no drops.
A volunteer used one drop of α-tocopheryl acetate in one or more eyes at night, and reported the irritation or comfort on a subjective scale of 1-to-10, (maximum irritation “1”, maximum comfort “10”) as shown in FIG. 1. At days 1 to 5, the individual placed one drop in the right eye only.

[1] = design: species or system New Zealand White (NZW) rabbits; conditions: both, New Zealand White, rabbit, in vivo
Procedure: FIG. 2 is a graph showing the levels of α-tocopheryl acetate in the tears of rabbits over the course of seven days after the rabbits were administered one drop of α-tocopheryl acetate (3.6 mg, 3.9 mg, 5.4 mg, or 6.0 mg) on day one.
Four adult New Zealand White (NZW) rabbits (two females, two males) each weighing 4.5 kilo to 5.0 kilo were used in this example. One drop of α-tocopheryl acetate, each weighing 3.6 mg, 3.9 mg, 5.4 mg and 6.0 mg, was instilled onto one eye of each animal. Tear samples were collected daily by filter paper, weighed, eluted in 300 μl MeOH and analyzed for tocopheryl acetate (EA) by LC/MS/MS. Detected tear levels of EA over a seven-day period ranged from 15 μg/ml to 36 μg/ml with a mean of 26 μg/ml (26,000 ng/ml). Detectable levels of EA in the cul-de-sac of the rabbit eye may last beyond seven days.

[2] = Water or saline stably absorbed in α-tocopheryl acetate (evaporative weight loss); format: physicochemical; conditions: sealed vials, 30° C., after 12 hrs
Procedure: In an alternative study, the concentrations of water or saline that would remain stably absorbed in α-tocopheryl acetate (EA) were examined. Equal volumes of water or 0.9% saline were placed with EA in sealed vials at 30° C. Samples of the resultant EA plus absorbed aqueous were removed at several time points and the water contents were assayed by evaporative weight loss to constant weight over time at 30° C. open to the air. After 12 hrs exposure of EA to water or the saline solution in sealed vials at 30° C. the maximum amounts of aqueous solutions absorbed in EA were reached. The resultant values were: 0.3% water absorbed and 0.6% saline solution absorbed.

dry eye syndrome = experiment: Topical application of α-tocopheryl acetate eyedrop in human volunteers with dry eye symptoms; conditions: for duration of relief from dry eye symptoms: one drop about 50 μl
[3] = Water evaporation from tocopherol/water emulsions; format: physicochemical; conditions: uncapped vials, ambient conditions, nine days
Procedure: FIG. 3 is a bar graph depicting the percent water evaporation from a tocopherol/water emulsions at nine days, shown as the percent water lost.
Mixtures of α-tocopheryl acetate (EA), d-α-tocopheryl polyethylene glycol 1000 succinate (TPGS) and water were prepared at the ratios shown in Table 1, weighed, and placed in 20 ml-sized glass vials. Vials #1 through #6 were each capped and sonicated for two minutes to yield stable emulsions. The vials #1 through #8 were then uncapped and left at ambient conditions for nine days. All the emulsions in vials #1 through #6 remained stable. All vials were weighed subsequently to measure weight (water) loss. […] Results are also depicted in FIG. 3.

Row | detected tear levels of EA, mean [1] | maximum saline solution absorbed in EA ([2]; equal volumes 0.9% saline and EA) | maximum water absorbed in EA ([2]; equal volumes water and EA) | g wt loss [3] | SMILES | ability to wear contact lenses (CDE symptoms; days 30-38, eyedrops not applied every single night) | duration of comfort before re-applying eyedrops (CDE symptoms; volunteer, one drop at night) | irritation or blurred vision reported (dry eye syndrome; one drop about 50 μl in eye, two human volunteers) | duration of relief from dry eye symptoms (dry eye syndrome; no repeat applications, both volunteers) | duration of relief from dry eye symptoms (dry eye syndrome; one subject)
1 | 26,000 ng/ml | 0.6% | 0.3% | – | CC(=O)Oc1c(C)c(C)c2c(c1C)CCC(C)(CCC[C@H](C)CCC[C@H](C)CCCC(C)C)O2 (stereo partly drawn) [α-tocopheryl acetate] | able to wear contact lenses (days 30-38) in relative comfort | up to five days | No irritation or blurred vision | several days; also recorded: at least one day | at least seven days
2 | – | – | – | lost no weight | CC(=O)Oc1c(C)c(C)c2c(c1C)CCC(C)(CCC[C@H](C)CCC[C@H](C)CCCC(C)C)O2 (stereo partly drawn) [vial 8, α-tocopheryl acetate] | – | – | – | – | –
